Assay results reported in patent EP1298214A2, “Plant thioesterases” (Calgene LLC, priority 1990, dated 1991).
Like-named read-outs stand apart in the source and are kept apart here.

Assays:
[1] = molecular target: T1, Bay cotyledon C12-preferring acyl-ACP thioesterase (Umbellularia californica, UniProt Q41635); assay: C12-preferring acyl-ACP thioesterase inhibitor studies, Bay ammonium sulfate fraction; assay type: biochemical; conditions: for inhibition at 500 µM / inhibition at 5000 µM: read-out: Percent Inhibition; for sensitivity of the thioesterase to the thiol reagent (in words): 5mM, preliminary inhibitor studies
T1 construct: This comprises the source tissue for enzyme extraction; from tissue; host or cells: cotyledons of immature Umbellularia californica seeds
T1 sequence (Q41635 84-382): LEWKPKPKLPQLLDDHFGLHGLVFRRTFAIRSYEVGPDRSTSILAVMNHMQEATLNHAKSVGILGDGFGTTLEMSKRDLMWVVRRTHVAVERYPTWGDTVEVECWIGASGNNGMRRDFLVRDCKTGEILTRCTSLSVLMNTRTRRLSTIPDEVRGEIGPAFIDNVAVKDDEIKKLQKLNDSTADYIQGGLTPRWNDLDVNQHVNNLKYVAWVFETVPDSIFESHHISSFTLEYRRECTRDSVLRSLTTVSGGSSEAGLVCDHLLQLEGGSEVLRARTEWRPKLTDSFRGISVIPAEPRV
Experimental: (§1) To assay for C12 thioesterase activity the following mixture is incubated at 30° for 30 min: "buffer" comprising 7mM KH2PO4-KOH pH 8, 20% v/v glycerol, 1mM dithiothreitol (DTT), 0.1% v/v Triton X100; sample to be tested for activity in the same or similar buffer as the "extraction buffer" described in Example 2; and 5µl of ^14C-radiolabeled lauroyl-ACP substrate for a total volume of 100µl and final lauroyl-ACP concentration of 0.5µM. Lauroyl-ACP substrate is prepared according to the method of Rock et al (Methods in Enzymology (1981) 72:397-403), using ACP prepared from Escherichia coli by the method of Rock and Cronan (Methods in Enzymology (1981) 71:341-351). The laurate is radiolabeled in the carboxylate group at a specific radioactivity of 50-60µCi/µmol.
(§2) The reaction is stopped by adding 0.5ml cold (0°) 10% v/v acetic acid. The fatty acid product of the hydrolytic enzyme action is extracted away from the unhydrolyzed substrate by adding 1ml diethyl ether and mixing vigorously. After settling for a few minutes the upper ether layer is transferred to 5ml scintillation fluid for determination of radioactivity by liquid scintillation spectrometry. Additional ether extractions may be performed to recover remaining traces of the reaction product for more accurate quantitation of the enzyme activity if desired. The amount of ether-extracted radioactivity is a direct measure of C12-preferring acyl-ACP thioesterase activity, provided the amount of enzyme is not sufficient to hydrolyze more than about 25% of the substrate. With greater activity than this the relationship between radioactivity in the ether layer and the quantity of enzyme becomes markedly nonlinear. The enzyme preparation must then be diluted appropriately to bring the activity into the linear range of the assay.
The crude extract is subjected to ammonium sulfate fractionation as follows. Sufficient solid ammonium sulfate is gradually added with stirring over 30 min to achieve 70% saturation. The preparation is then stirred for a further 30 min. After centrifuging as described above, the pelleted material is resuspended in extraction buffer (2ml/g original tissue weight) and stirred for 10 min until dissolved. Ammonium sulfate is then added as before, but this time only sufficient to achieve 50% saturation. After centrifuging as before, the supernatant fraction is discarded. The pelleted material, which contains the C12-preferring acyl-ACP thioesterase, may be frozen by immersion in liquid nitrogen and then stored at -70° at this stage if desired. The resulting material is referred to as the "ammonium sulfate fraction." Very little of the C12-preferring acyl-ACP thioesterase activity is lost if the pellet is frozen very rapidly.
Table 1 below reports inhibition of Bay cotyledon C12-preferring acyl-ACP thioesterase by thiol reagents observed when an ammonium sulfate fraction (see, Example 2) was assayed (see, Example 1).
After removal of dithiothreitol from an ammonium sulfate fraction preparation by passage through a small. column of G25-50 gel filtration medium (Pharmacia, Piscataway, NJ) the following assay results were observed.

[2] = system: Cuphea C10-preferring acyl-ACP thioesterase; assay: C10 acyl-ACP thioesterase inhibitor studies, material from Example 9A; assay type: biochemical, Cuphea hookeriana; conditions: preliminary inhibitor studies; for sensitivity of the thioesterase to the inhibitor (in words): concentration not given
Experimental: Following the same general procedures as outlined in Example 1, to assay for C10 thioesterase activity, the following mixture is incubated at 30° for 10-60 min: 50µl sample to be tested in the same or similar "extraction buffer" described in Example 9A, and approximately 250pmol of [^14C]-radiolabeled acyl-ACP substrate, (usually decanoyl-ACP is labeled in the carboxylate group to 50-60µCi/µmol) in a total volume of […], for a final decanoyl-ACP concentration of 0.5-5.0µM, typically 5.0µM. The reaction is stopped by adding 0.5ml 10% (v/v) cold (4°) acetic acid and placing the reaction mixture on ice for a few minutes. The fatty acid product of the hydrolytic enzyme action is extracted away from the unhydrolyzed substrate by adding 2ml diethyl ether and mixing vigorously. The ether is transferred to 5ml scintillation fluid for scintillation counting. Additional ether extracts may be performed to recover remaining traces of product for more accurate quantitation of the activity if desired.
An acetone powder is prepared by grinding the seeds to a powder in a mortar and pestle under liquid nitrogen, and then grinding the powder in a mortar and pestle with cold acetone (at approximately -20°). The powder is collected by filtration and rinsed with cold ether to remove remaining traces of acetone. It is then extracted with 10ml of "extraction buffer" per gram of acetone powder weight (this and all subsequent steps at 0-4°) comprising 50mM KH2PO4-KOH pH 7.5, 10mM 2-mercaptoethanol. The homogenate is centrifuged at 11,000xg for 15 min at 4°, and the supernatant fraction used for subsequent purification steps after filtration through two layers of Miracloth (Calbiochem. Inc.; LaJolla, CA).
The supernatant fraction is then subjected to ammonium sulfate fractionation. The 40-60% saturation ammonium sulfate pellet (prepared as described in Example 2) is redissolved in "buffer" comprising 50mM KH2PO4-KOH pH 6.9, 10% (v/v) glycerol, and 10mM 2-mercaptoethanol, and dialyzed against this buffer to remove remaining ammonium sulfate. […]

[3] = molecular target: T2, Bay C12-preferring acyl-ACP thioesterase (Umbellularia californica, UniProt Q41635); assay: Substrate hydrolysis (ACP versus CoA) by peak gradient-eluted fraction of the ACP column; assay type: biochemical; design: This comprises the source tissue for enzyme extraction; from tissue; host or cells: cotyledons of immature Umbellularia californica seeds; conditions: cpm of ether-extractable product
T2 sequence (Q41635 84-382): T1 sequence (Q41635 84-382)
Experimental: as §1
(§3) The reaction is stopped by adding 0.5ml cold (0°) 10% v/v acetic acid. […] After settling for a few minutes the upper ether layer is transferred to 5ml scintillation fluid for determination of radioactivity by liquid scintillation spectrometry. Additional ether extractions may be performed to recover remaining traces of the reaction product for more accurate quantitation of the enzyme activity if desired. The amount of ether-extracted radioactivity is a direct measure of C12-preferring acyl-ACP thioesterase activity, provided the amount of enzyme is not sufficient to hydrolyze more than about 25% of the substrate. […]

[4] = system: Bay seeds extractable C12-preferring acyl-ACP thioesterase and lauroyl-CoA hydrolysis activity; assay: Extractable hydrolysis activity at two stages of Bay seed development; assay type: biochemical, Umbellularia californica; conditions: cpm ether-extractable radioactivity
Experimental: as §1, §2
Further evidence that the C12-preferring acyl-ACP thioesterase is involved in the biosynthesis of laurate groups that predominate in the Bay seeds comes from a comparison of the extractable activity of the enzyme at two different stages of seed development. As shown in the following table, Table 5, very young seeds, which contain only long-chain fatty acids and insignificant amounts of laurate, yield much less C12-preferring ACP thioesterase than older seeds that have accumulated significant amounts of laurate. Thus it appears that significant activity of this enzyme is only present when the seeds are accumulating laurate. Additionally, there appears to be much less difference in lauroyl-CoA hydrolysis activity, consistent with their being different enzymes as discussed above in Example 5.

[5] = system: material which fails to bind the ACP column (Lauroyl-CoA hydrolysis activity); assay: Substrate hydrolysis (ACP versus CoA) by peak unbound fraction of the ACP column; assay type: biochemical, Umbellularia californica; conditions: Flow-through (nonbinding) fraction; cpm of ether-extractable product
Experimental: as §1, §3

[6] = 0.5mM added to assay, mean of duplicates, ether layer, control without addition 4322
[7] = 5mM added to assay, after removal of dithiothreitol by G25-50 gel filtration, control 3776
[8] = 5mM added to assay, after removal of dithiothreitol by G25-50 gel filtration
[9] = 5mM added to assay, mean of duplicates, ether layer, control without addition 4322

NC(=O)CI [iodoacetamide]
Mean Activity [1, 6]: 4180 cpm | inhibition at 500 µM ([1]; 0.5mM added to assay): 3% | Mean Activity [1, 7]: 3851 cpm | inhibition at 5000 µM [1, 8]: 0% | Mean Activity [1, 9]: 4047 cpm | inhibition at 5000 µM ([1]; 5mM added to assay): 6% | sensitivity of the thioesterase to the thiol reagent (in words) [1]: insensitive | sensitivity of the thioesterase to the inhibitor (in words) [2]: insensitive

CCCCCCCCCCCC(=O)SCCNC(=O)CCNC(=O)[C@H](O)C(C)(C)COP(=O)(O)OP(=O)(O)OC[C@H]1O[C@@H](n2cnc3c(N)ncnc32)[C@H](O)[C@@H]1OP(=O)(O)O [C12-CoA, lauroyl coenzyme A]
Activity on Substrate [3]: 27 cpm | Hydrolysis / Thioesterase Activity In Assays ([4]; Normal Seeds (2g/cotyledon pair)): 31,268 cpm | Hydrolysis / Thioesterase Activity In Assays ([4]; Young Seeds (0.5g/cotyledon pair)): 29,995 cpm | Activity on Substrate [5]: 10808 cpm

CCN1C(=O)C=CC1=O [N-ethylmaleimide]
Mean Activity [1, 6]: 4320 cpm | inhibition at 500 µM ([1]; 0.5mM added to assay): 0% | Mean Activity [1, 7]: 269 cpm | inhibition at 5000 µM [1, 8]: 93% | Mean Activity [1, 9]: 103 cpm | inhibition at 5000 µM ([1]; 5mM added to assay): 98% | sensitivity of the thioesterase to the thiol reagent (in words) [1]: almost completely inhibited | inhibition of the thioesterase (in words) ([2]; 5mM): completely inhibited

O=S(=O)(F)Cc1ccccc1 [phenylmethylsulfonyl fluoride]
sensitivity of the thioesterase to the inhibitor (in words) [2]: insensitive
